Test results from ChEMBL document CHEMBL1122449, “Anticoccidial derivatives of 6-azauracil. 5. Potentiation by benzophenone side chains” (J Med Chem, 1983).

Columns and labels:
[1] = system: Eimeria tenella; assay: Anticoccidial activity which controlled infection by Eimeria tenella in Leghorn cockerels; assay type: functional; settings: read-out: MEC
[2] = system: Eimeria necatrix; assay: Anticoccidial activity which controlled infection by Eimeria necatrix in Leghorn cockerels; MEC means minimum effective concentration in parts per million.; assay type: functional; settings: read-out: MEC
[3] = Apparent pKa value was measured in 2:1 DMF/H2O.; assay type: physicochemical
[4] = Plasma half-life of the compound.; assay type: ADME
[5] = system: Eimeria acervulina; assay: Anticoccidial activity which controlled infection by Eimeria acervulina in Leghorn cockerels; settings: read-out: MEC
[6] = Apparent pKa value was measured in 1:1 DMF/H2O.; assay type: physicochemical

SMILES	minimal effective concentration [1] [µg/mL]	other results
Cc1cc(-n2ncc(=O)[nH]c2=O)cc(C)c1C(O)c1ccc(Cl)cc1 (stereo not given)	30	–
CS(=O)(=O)c1ccc(C(=O)c2ccc(-n3ncc(=O)[nH]c3=O)cc2Cl)cc1	–	minimal effective concentration [2]: > 15 µg/mL
Cc1cc(Cl)ccc1C(=O)c1ccc(-n2ncc(=O)[nH]c2=O)cc1C	15	–
Cc1cc(-n2ncc(=O)[nH]c2=O)ccc1C(=O)c1ccc(Cl)cc1	8	pH1/2 [3]: 7.6; half-life [4]: 13 h
O=C(c1ccc(Cl)cc1Cl)c1ccc(-n2ncc(=O)[nH]c2=O)cc1Cl	4	–
CC(=O)c1ccc(-n2ncc(=O)[nH]c2=O)cc1	> 250	pH1/2 [3]: 6.53
O=C(c1ccccc1)c1ccc(-n2ncc(=O)[nH]c2=O)cc1	60	pH1/2 [3]: 7.79
COc1ccc(C(=O)c2ccc(-n3ncc(=O)[nH]c3=O)cc2)cc1	125	–
Cc1cc(-n2ncc(=O)[nH]c2=O)ccc1C(O)c1ccc(Cl)cc1 (stereo not given)	15	–
O=C(c1ccc(-n2ncc(=O)[nH]c2=O)cc1)c1cccs1	> 250	–
CSc1ccc(C(=O)c2ccc(-n3ncc(=O)[nH]c3=O)cc2Cl)cc1	–	minimal effective concentration [5]: > 30 µg/mL
O=C(c1ccc(Cl)cc1)c1ccc(-n2ncc(=O)[nH]c2=O)cc1Cl	2	pH1/2 [3]: 7.16; half-life [4]: 20 h
Cc1cc(-n2ncc(=O)[nH]c2=O)ccc1Cc1ccccc1	30	–
O=c1cnn(-c2ccc(C(O)c3ccc(Cl)cc3)c(Cl)c2)c(=O)[nH]1 (stereo not given)	2	–
Cc1cc(-n2ncc(=O)[nH]c2=O)cc(Cl)c1C(=O)c1ccc(Cl)cc1	8	half-life [4]: 21 h
O=C(c1ccccc1)c1cccc(-n2ncc(=O)[nH]c2=O)c1	> 250	–

SMILES	minimal effective concentration [1] [µg/mL]	other results
Cc1cc(-n2ncc(=O)[nH]c2=O)cc(C)c1C(=O)c1ccc(Cl)cc1	15	–
CC(=O)c1ccc(-n2ncc(=O)[nH]c2=O)cc1Cl	125	–
O=C(c1ccccc1)c1ccc(-n2ncc(=O)[nH]c2=O)cc1Cl	15	pH1/2 [3]: 7.04
Cc1cc(C)c(C(=O)c2ccc(-n3ncc(=O)[nH]c3=O)cc2)c(C)c1	> 250	pH1/2 [3]: 7.16
O=C(c1ccccc1)c1cc(-n2ncc(=O)[nH]c2=O)ccc1Cl	> 250	–
Cc1cc(-n2ncc(=O)[nH]c2=O)ccc1C(O)c1ccccc1 (stereo not given)	30	pH1/2 [6]: 7.37
O=C(c1ccc(Cl)cc1)c1ccc(-n2ncc(=O)[nH]c2=O)cc1	30	–
O=c1cnn(-c2ccc(-c3ccc4oc5ccc(Cl)cc5c(=O)c4c3)cc2)c(=O)[nH]1	> 250	–
CCCC(=O)c1ccc(-n2ncc(=O)[nH]c2=O)cc1	> 60	–
Cc1cc(-n2ncc(=O)[nH]c2=O)ccc1C(=O)c1ccc(C#N)cc1	125	pH1/2 [3]: 7.08
Cc1cc(-n2ncc(=O)[nH]c2=O)ccc1C(=O)c1ccccc1Cl	60	pH1/2 [3]: 7.08
Cc1cc(-n2ncc(=O)[nH]c2=O)ccc1C(=O)c1ccc(Cl)cc1Cl	4	half-life [4]: 45 h
Cc1cc(Br)ccc1C(=O)c1ccc(-n2ncc(=O)[nH]c2=O)cc1Cl	8	–
Cc1ccc(C(=O)c2ccc(-n3ncc(=O)[nH]c3=O)cc2)cc1	> 250	–
Cc1cc(-n2ncc(=O)[nH]c2=O)ccc1C(=O)c1ccccc1	8	pH1/2 [6]: 7.02
